Experimental data from US5349127A, “Expression of herbicide metabolizing cytochromes P450” (priority 1992, dated 1994).

Legend:
[1] = test system: S. lividans pCAO200SU1#12; assay: Sulfonylurea metabolism by washed cell suspension (Examples 6-9); type: in vitro ADME, Streptomyces lividans; details: substrate 10006
Protocol: (§1) Herbicides and their metabolites are measured by HPLC as described by Romesser et al., BBRC 140: 650-659 (1986), herein incorporated by reference, except that 0.1% H3 PO4 is used in both solvents. Chromatographic identity and quantitation of the herbicides and their resulting metabolites is determined by comparing them chromatographically with authentic standard compounds. Identity of the resulting metabolites is also confirmed by UV spectroscopy. […]
(§2) S. lividans transformed respectively with pCAO200SU1-FeS-B#9, pCAO200SU#112and pCAO200 were cultured for 36 hours in 400 ml of YEME broth at 30° C. S. griseolus ATCC 11796 was similarly cultured in 400 ml of sporulation broth. Six hours before harvesting the cells, 150 ml of fresh YEME broth was added to the S. lividans cells, and the S. griseolus cells were split into two 200 ml cultures with 100 ml of fresh sporulation broth added to each. 10001 (36 mg) was added to one of the two S. griseolus cultures to induce cytochrome P450SU1. The cells were prepared as described above in Example 5 and the concentrations of the sulfonylurea compound 10006 and its metabolites 10007, 10008 or 10009 were determined.

[2] = test system: S. lividans pCAO200; assay: as above; type: in vitro ADME, Streptomyces lividans; details: substrate 10006
Protocol: as §1, §2

[3] = test system: S. lividans pCAO200SU1-FeS-B#9; assay: as above; type: in vitro ADME, Streptomyces lividans; details: substrate 10006
Protocol: Herbicides and their metabolites are measured by HPLC as described by Romesser et al., BBRC 140: 650-659 (1986), herein incorporated by reference, except that 0.1% H3 PO4 is used in both solvents. Chromatographic identity and quantitation of the herbicides and their resulting metabolites is determined by comparing them chromatographically with authentic standard compounds. Identity of the resulting metabolites is also confirmed by UV spectroscopy.
A 100 ml culture of S. griseolus ATCC 11796 in sporulation broth and a 50 ml culture of S. lividans transformed with pCAO400 in YEME broth were prepared and incubated for 24 hours as described. At that time, the S. griseolus culture was split into two 50 ml aliquots into two separate flasks and 25 ml of fresh sporulation broth was added to each and 9 mg of […] was added to one of these cultures to induce cytochrome P450SU1 expression. Fresh YEME broth (25 ml) was added to the S. lividans culture. After an additional 6 hours growth at 30° C., the cells in each culture were harvested as described above, washed twice with MOPS (50 mM, pH 7.2) and recentrifuged. The cell pellets were resuspended in four cell volumes of MOPS (50 mM, pH 7.2) containing 0.2% glucose and about 100 μg/ml of 10004. These cell suspensions were incubated at 30° C. with shaking and aliqouts were taken at 2 and 5.5 hours. The supernatant of each aliquot was analyzed by HPLC and the concentrations of the sulfonylurea compound 10004 and its metabolite 10005 were determined.
as §2, with “The cells were prepared as described above in Example 5 and the concentrations of the sulfonylurea compound 10006 and its metabolites 10007, 10008 or 10009 were determined.” left out

[4] = test system: Arabidopsis thaliana seedlings; assay: Seed germination assay of transgenic Arabidopsis (Example 26); type: in vivo; details: Kanamycin 50 mg/l
Protocol: T2 seed was harvested from selected putative transformants and sown on GM medium containing 50 mg/l kanamycin and that containing 5 ppb 10015. Plates were sealed with filter tape, cold treated for 2 or more days at 4° C., and then incubated for 10 to 20 days at 23° C. under constant illumination as described above. Seedlings were scored as resistant (green, true leaves develop) and sensitive (no true leaves develop). […] The percent of resistant seedlings is inversely proportional with the two selections. Kanamycin is a positive selection for those seedlings that carry the foreign DNA.
Selected T2 seedlings that were kanamycin resistant were transplanted to soil and were grown to maturity at 21° C. daytime (14 hours) 18° C. nighttime (10 hours) at 65-80% relative humidity. T3 seed was collected, sterilized, and germinated on GM medium containing 50 mg/l kanamycin and that containing 5 ppb 10015. Plates were sealed with filter tape, cold treated for 2 or more days at 4° C., and then incubated for 10 to 20 days at 23° C. under constant illumination as described above. Two of the six plants produced seed that was 100% resistant to kanamycin and 100% sensitive to 10015; they are homozygous for the inserted DNA. The other four parents are heterozygous and show an inverse proportion of kanamycin and 10015 resistant seedlings. […] Therefore, seedlings expressing the P450SU1 gene can be negatively selected.
Germination assays of homozygous seed on various concentrations of 10015 were performed to assay the relative sensitivity to 10015 produced by the three different promoters and between independent transformants. Seed was sterilized, sown on GM medium with 0, 0.5, 1, 2, 5, 10 and 20 ppb 10015, incubated, and scored as described above. In addition, seedlings are rated on a scale of one to three for the amount of growth.
Over 500 seed that are homozygous for the P450SU1 coding region were sown on the same plates. The plates were sealed, cold-treated, and incubated as previously described. […] Wild type seedlings were unaffected by the dying transformed seedlings. In addition, when greater than 10,000 seed of a homozygous Cab-SU111 plant was sown on GM medium with 10 ppb 10015, then cold-treated and incubated as described above, eighteen seedlings were resistant to 10015 and were unaffected by neighboring seedlings.

[5] = test system: transformed tobacco seedlings; assay: Kanamycin resistance of progeny of transformed tobacco (Example 22); type: in vivo, Nicotiana tabacum
Protocol: Growth medium was prepared from Murishige minimal organics medium (Gibco Laboratories, Grand Island, N.Y.), 8 g/l agar, supplemented with T vitamins (50 ppb biotin, 0.5 ppm pyridoxine HCl, 0.5 ppm thiamine HCl, 5 ppm nicotinic acid, 0.5 ppm folic acid, 2 ppm glycine, 100 ppm myo-inositol), sterilized and placed into sterile PlantCon plant tissue culture containers (Flow Laboratories, McLean, Va.). Tobacco seed obtained from the self-pollination of the primary transformants was surface sterilized by a treatment of not more than 30 min in 20% chlorine bleach, 0.1% sodium dodecyl sulfate, followed by rinsing in distilled water, and placed on the surface of the medium in the sterile containers. Following this treatment, the seed was allowed to germinate and grow under illumination (100 microeinsteins·m^-2 ·s^-1), at 22° C.
The number of loci where t-DNA was incorporated into the genome of the tobacco was determined by segregation analysis of kanamycin resistance in the next generation of progeny. Seed from the self pollination of the primary transformants was grown as described above on medium supplemented with 200 ppm kanamycin sulfate (Sigma). After 21 days, resistant (transformed) plants were unaffected compared to control plants, whereas sensitive plants were smaller, partially chlorotic, and poorly rooted. Determination of the number of genetic loci of the primary transformants was based on the segregation of the kanamycin resistance trait.
Copy number determination is from kanamycin sensitive segregation analysis of about 100 seed.

## COC(=O)c1ccccc1S(=O)(=O)NC(=O)Nc1nc(C)nc(O)n1 [compound 10007, N-[(4-hydroxy-6-methyl-1,3,5-triazinyl)aminocarbonyl]-2-methoxycarbonylbenzenesulfonamide]
[1]; 2 h
  concentration in supernatant: 2000 nM
[1]; 4 h
  concentration in supernatant: 2000 nM
[1]; 6 h
  concentration in supernatant: 2000 nM
[2]; 2 h
  concentration in supernatant: 4000 nM
[2]; 4 h
  concentration in supernatant: 1000 nM
[2]; 6 h
  concentration in supernatant: 1000 nM
[3]; 2 h
  concentration in supernatant: 12000 nM
[3]; 4 h
  concentration in supernatant: 21000 nM
[3]; 6 h
  concentration in supernatant: 30000 nM

## COc1nc(C)nc(=NC(=O)NS(=O)(=O)c2ccccc2C(=O)O)[nH]1 [compound 10008, N-[(4-methoxy-6-methyl-1,3,5-triazinyl)aminocarbonyl]-2-carboxybenzenesulfonamide]
[1]; 2 h
  concentration in supernatant: 1000 nM
[1]; 4 h
  concentration in supernatant: 1000 nM
[1]; 6 h
  concentration in supernatant: 1000 nM
[2]; 2 h
  concentration in supernatant: 0 nM
[2]; 4 h
  concentration in supernatant: 0 nM
[2]; 6 h
  concentration in supernatant: 0 nM
[3]; 2 h
  concentration in supernatant: 18000 nM
[3]; 4 h
  concentration in supernatant: 38000 nM
[3]; 6 h
  concentration in supernatant: 55000 nM

## NC[C@H]1O[C@H](O[C@H]2[C@H](O)[C@@H](O[C@H]3O[C@H](CO)[C@@H](O)[C@H](N)[C@H]3O)[C@H](N)C[C@@H]2N)[C@H](O)[C@@H](O)[C@@H]1O [Kanamycin, reference compound]
[4]; T2 seed ID 12-1, pCab-SU111
  #R number of resistant seedlings: 11
  #S number of sensitive seedlings: 6
  % R percent of seedlings which are resistant: 65%
[4]; T2 seed ID 12-2, pCab-SU111
  #R number of resistant seedlings: 0
  #S number of sensitive seedlings: 12
  % R percent of seedlings which are resistant: 0%
[4]; T2 seed ID 12-4, pCab-SU111
  #R number of resistant seedlings: 13
  #S number of sensitive seedlings: 18
  % R percent of seedlings which are resistant: 42%
[4]; T2 seed ID 12-5, pCab-SU111
  #R number of resistant seedlings: 0
  #S number of sensitive seedlings: 20
  % R percent of seedlings which are resistant: 0%
[4]; T2 seed ID 12-6, pCab-SU111
  #R number of resistant seedlings: 15
  #S number of sensitive seedlings: 9
  % R percent of seedlings which are resistant: 62%
[4]; T2 seed ID 12-7, pCab-SU111
  #R number of resistant seedlings: 21
  #S number of sensitive seedlings: 7
  % R percent of seedlings which are resistant: 75%
[4]; T2 seed ID 12-8, pCab-SU111
  #R number of resistant seedlings: 6
  #S number of sensitive seedlings: 5
  % R percent of seedlings which are resistant: 55%
[4]; T2 seed ID 12-9, pCab-SU111
  #R number of resistant seedlings: 13
  #S number of sensitive seedlings: 3
  % R percent of seedlings which are resistant: 81%
[4]; T2 seed ID 12-10, pCab-SU111
  #R number of resistant seedlings: 0
  #S number of sensitive seedlings: 21
  % R percent of seedlings which are resistant: 0%
[4]; T2 seed ID 12-11, pCab-SU111
  #R number of resistant seedlings: 0
  #S number of sensitive seedlings: 9
  % R percent of seedlings which are resistant: 0%
[4]; T3 seed ID 12-1-1, pCab-SU111
  #R number of resistant seedlings: 184
  #S number of sensitive seedlings: 0
  % R percent of seedlings which are resistant: 100%
[4]; T3 seed ID 12-1-2, pCab-SU111
  #R number of resistant seedlings: 191
  #S number of sensitive seedlings: 0
  % R percent of seedlings which are resistant: 100%
[4]; T3 seed ID 12-1-3, pCab-SU111
  #R number of resistant seedlings: 136
  #S number of sensitive seedlings: 41
  % R percent of seedlings which are resistant: 77%
[4]; T3 seed ID 12-1-4, pCab-SU111
  #R number of resistant seedlings: 98
  #S number of sensitive seedlings: 39
  % R percent of seedlings which are resistant: 72%
[4]; T3 seed ID 12-1-5, pCab-SU111
  #R number of resistant seedlings: 161
  #S number of sensitive seedlings: 56
  % R percent of seedlings which are resistant: 74%
[4]; T3 seed ID 12-1-6, pCab-SU111
  #R number of resistant seedlings: 254
  #S number of sensitive seedlings: 75
  % R percent of seedlings which are resistant: 77%
[4]; WT
  #R number of resistant seedlings: 0
  #S number of sensitive seedlings: 77
  % R percent of seedlings which are resistant: 0%
[5]; AGS502 (Control)
  Kanamycin Resistant (plants demonstrating result/total plants): 6/9
[5]; SuFe21.2
  Kanamycin Resistant (plants demonstrating result/total plants): 7/10
[5]; SuFe21.5
  Kanamycin Resistant (plants demonstrating result/total plants): 8/10
[5]; SuFe21.6
  Kanamycin Resistant (plants demonstrating result/total plants): 9/10
[5]; SuFe21.7
  Kanamycin Resistant (plants demonstrating result/total plants): 7/10
[5]; SuFe21.8
  Kanamycin Resistant (plants demonstrating result/total plants): 8/9
[5]; SuFell.1
  Kanamycin Resistant (plants demonstrating result/total plants): 7/9
[5]; SuFell.11
  Kanamycin Resistant (plants demonstrating result/total plants): 7/8
[5]; SuFell.3
  Kanamycin Resistant (plants demonstrating result/total plants): 5/10
[5]; SuFell.4
  Kanamycin Resistant (plants demonstrating result/total plants): 7/10
[5]; SuFell.7
  Kanamycin Resistant (plants demonstrating result/total plants): 9/10
[5]; SuFell.8
  Kanamycin Resistant (plants demonstrating result/total plants): 10/10
